# Measured values published in patent publication US6576625B2, “Targeted vesicular constructs for cytoprotection and treatment of H. pylori infections” (Panacea Biotic Limited, priority 2001, dated 2003).
# Tested on: NSAID induced, gastric lesions followed by colonization of gastric mucosa by orally delivered H. felis
# Assay: Ulcer healing (cytorepairing and cytoprotective performance) in rats, Sakita's classification
# Assay type: in vivo, albino male rats of Wistar origin
# Details: at the same MIC90 level
# Procedure: The cytorepairing and cytoprotective performance of the prepared liposomes was assessed in albino male rats of Wistar origin. The level of ulcer healing (%RUh) following the administration of liposomes against the NSAID induced, gastric lesions followed by colonization of gastric mucosa by orally delivered H. felis suspension culture was studied. The degree of ulceration and rate of ulcer healing was determined following the classification of Sakita (Sakita, T., Oguro, Y., Miwa, T., 1981, In: Handbook of Intestinal Endoscopy 1 ed., Tokyo: Chugi-Igakusha, 375-396) and Tamada (Tamada, F., 1992, In: Diagnostic and Therapeutic Gastrointestinal Endoscopy, KSH Hospital, 23-25), both incorporated herein by reference. Histopathological examination of the gastric mucosa was done using phase contrast research microscope (Leitz-Biomed, Germany).
compound,measurement,value
"CC1(C)S[C@@H]2[C@H](NC(=O)[C@H](N)c3ccc(O)cc3)C(=O)N2[C@H]1C(=O)O [amoxycillin, Amoxycillin]",recovery (ulcer healing),33.3%
